The values that follow come from patent publication US9738697B2 (Wisconsin Alumni Research Foundation, priority 2013, dated 2017).

Each structure is given as a SMILES string. Bounds are passed on as bounds.

The target in one data set is T1, neprilysin (Homo sapiens, UniProt P08473).
T1 construct: purchased Reprokine; Ltd. RKP08473
The data set is described as follows: Protease assay with neprilysin (HPLC). The class given is in vitro ADME. The conditions noted are these: 40 μg/mL neprilysin.

In a further data set the target is T2, DPP-4 (Homo sapiens, UniProt P27487).
T2 construct: purchased EMD Biosciences 317640
The data set is described as follows: Protease assay with DPP-4 (HPLC). The class given is in vitro ADME. Particulars: TBS pH 8.0, 37° C., monitored seven days.

Another data set addresses human GLP-1 receptor (Homo sapiens, UniProt P43220). Kind of data set: GLP-1R activation monitored by cAMP production in HEK293 cells. For orientation: Changes in cAMP serve as a functional read-out for many G protein-coupled receptors.
Data set [1] concerns T3, chymotrypsin.
T3 construct: purchased Promega V1062
Kind of data set: Protease assay with chymotrypsin (HPLC). The class given is in vitro ADME. The conditions noted are these: chymotrypsin (50 μg/mL) in TBS; 50 μg/mL chymotrypsin, TBS pH 8.0, room temperature, 1500 seconds; read-out: peptide remaining after 1500 seconds. The protocol: (§1) An HPLC method from the literature was used to assess protease action on selected compounds.^29,31 Two nmol of solid peptide was dissolved in 40 μL of TBS pH 8.0 (resulting concentration of peptide=40 μM) before protease was added. Chymotrypsin was purchased from Promega (Fitchburg, Wis.; catalog #V1062), and neprilysin was purchased from Reprokine. Ltd. (Valley Cottage, N.Y.; catalog #RKP08473); stock solutions of 250 μg/mL chymotrypsin and 200 μg/mL neprilysin in water were prepared. A 10 μL aliquot of protease stock solution was added to 40 μL of 40 μM peptide solution to begin the reaction. Periodically, a 10 μL aliquot of the solution was removed, and protease action was halted by adding this aliquot to 100 μL of 1% aqueous TFA solution. A portion (100 μL) of the quenched solution was injected onto an HPLC column using the conditions described under “Peptide Synthesis”, and peaks were analyzed using MALDI-TOF MS. The time course of peptide degradation was experimentally determined by integrating the area of each peak in a series of HPLC traces. The area percent of parent peptide (relative to the initial trace) was calculated for each trace and plotted in GraphPad Prism as an exponential decay to determine half-life values.
(§2) ID. […] Major backbone cut sites are indicated with double front slashes. […] Digestion occurs at three major cleavage sites. […] ID. NO: 7 with 50 μg/mL chymotrypsin in TBS pH 8.0 at room temperature. […] ID. NO: 9 with 50 μg/mL chymotrypsin in TBS pH 8.0 at room temperature. This peptide has seven substitutions, α→Aib.

Data set [2] concerns the target T4, chymotrypsin (Bos taurus, UniProt P00766).
T4 construct: purchased Promega V1062
The data set is described as follows: Protease assay with chymotrypsin (HPLC). The class given is in vitro ADME. Particulars: 40 μM peptide, 50 μg/mL chymotrypsin, TBS pH 8.0, room temperature; read-out: t1/2 with chymotrypsin (converted). The protocol: as §1, §2

human GLP-1 receptor, sequence (P43220 24-463): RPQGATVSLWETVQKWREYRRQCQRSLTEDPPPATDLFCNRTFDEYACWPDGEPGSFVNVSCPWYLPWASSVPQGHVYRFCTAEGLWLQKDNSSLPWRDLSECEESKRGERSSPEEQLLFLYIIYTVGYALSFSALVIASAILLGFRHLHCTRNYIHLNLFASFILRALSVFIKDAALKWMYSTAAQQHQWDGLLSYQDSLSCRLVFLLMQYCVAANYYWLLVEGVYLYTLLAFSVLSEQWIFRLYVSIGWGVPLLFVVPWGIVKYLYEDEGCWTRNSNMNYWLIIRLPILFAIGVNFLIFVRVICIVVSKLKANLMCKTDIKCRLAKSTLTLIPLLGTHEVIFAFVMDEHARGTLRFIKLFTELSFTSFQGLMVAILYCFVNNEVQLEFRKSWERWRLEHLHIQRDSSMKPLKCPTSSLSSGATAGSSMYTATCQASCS
T2 sequence (P27487 whole entry): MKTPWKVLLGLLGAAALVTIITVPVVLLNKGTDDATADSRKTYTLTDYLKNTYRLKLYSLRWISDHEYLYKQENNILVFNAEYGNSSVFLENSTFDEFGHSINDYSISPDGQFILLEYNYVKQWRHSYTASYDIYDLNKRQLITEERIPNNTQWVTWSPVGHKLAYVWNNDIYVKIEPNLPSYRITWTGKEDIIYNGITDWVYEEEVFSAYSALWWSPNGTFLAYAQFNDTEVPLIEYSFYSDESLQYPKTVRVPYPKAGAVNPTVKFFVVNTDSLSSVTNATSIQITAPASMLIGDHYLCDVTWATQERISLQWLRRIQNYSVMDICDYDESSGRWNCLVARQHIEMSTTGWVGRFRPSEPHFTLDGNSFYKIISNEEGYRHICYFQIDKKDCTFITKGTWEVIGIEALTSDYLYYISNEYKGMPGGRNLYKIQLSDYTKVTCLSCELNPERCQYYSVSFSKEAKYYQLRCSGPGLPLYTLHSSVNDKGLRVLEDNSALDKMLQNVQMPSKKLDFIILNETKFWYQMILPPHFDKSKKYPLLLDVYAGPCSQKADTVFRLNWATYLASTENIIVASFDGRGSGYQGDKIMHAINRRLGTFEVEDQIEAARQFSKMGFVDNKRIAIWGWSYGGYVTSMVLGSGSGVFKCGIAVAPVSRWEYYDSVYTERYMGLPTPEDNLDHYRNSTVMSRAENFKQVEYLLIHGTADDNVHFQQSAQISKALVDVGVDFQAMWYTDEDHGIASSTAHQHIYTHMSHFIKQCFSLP
T1 sequence (P08473 whole entry): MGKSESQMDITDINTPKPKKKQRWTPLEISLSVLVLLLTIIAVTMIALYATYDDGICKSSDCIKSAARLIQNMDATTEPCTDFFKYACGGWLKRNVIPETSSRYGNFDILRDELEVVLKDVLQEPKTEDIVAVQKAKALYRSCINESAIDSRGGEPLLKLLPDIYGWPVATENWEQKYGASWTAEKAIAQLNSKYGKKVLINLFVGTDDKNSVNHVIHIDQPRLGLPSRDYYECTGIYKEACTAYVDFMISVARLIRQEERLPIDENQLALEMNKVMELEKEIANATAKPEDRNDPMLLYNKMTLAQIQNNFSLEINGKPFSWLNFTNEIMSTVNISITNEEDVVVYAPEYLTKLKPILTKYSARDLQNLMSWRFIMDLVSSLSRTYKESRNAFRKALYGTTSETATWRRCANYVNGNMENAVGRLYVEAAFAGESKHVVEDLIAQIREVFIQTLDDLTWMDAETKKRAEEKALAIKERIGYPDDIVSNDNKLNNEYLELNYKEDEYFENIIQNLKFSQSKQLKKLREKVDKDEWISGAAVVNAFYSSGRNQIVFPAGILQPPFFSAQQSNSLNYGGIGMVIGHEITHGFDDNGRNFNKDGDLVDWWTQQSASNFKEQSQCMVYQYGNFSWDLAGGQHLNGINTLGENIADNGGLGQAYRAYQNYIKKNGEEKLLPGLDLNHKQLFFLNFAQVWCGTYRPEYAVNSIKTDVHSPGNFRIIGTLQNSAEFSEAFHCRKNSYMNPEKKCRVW
Description for neprilysin: An HPLC method from the literature was used to assess protease action on selected compounds.^29,31 Two nmol of solid peptide was dissolved in 40 μL of TBS pH 8.0 (resulting concentration of peptide=40 μM) before protease was added. Chymotrypsin was purchased from Promega (Fitchburg, Wis.; catalog #V1062), and neprilysin was purchased from Reprokine. Ltd. (Valley Cottage, N.Y.; catalog #RKP08473); stock solutions of 250 μg/mL chymotrypsin and 200 μg/mL neprilysin in water were prepared. A 10 μL aliquot of protease stock solution was added to 40 μL of 40 μM peptide solution to begin the reaction. Periodically, a 10 μL aliquot of the solution was removed, and protease action was halted by adding this aliquot to 100 μL of 1% aqueous TFA solution. […] The time course of peptide degradation was experimentally determined by integrating the area of each peak in a series of HPLC traces. The area percent of parent peptide (relative to the initial trace) was calculated for each trace and plotted in GraphPad Prism as an exponential decay to determine half-life values.
Major backbone cut sites, as determined by MALDI-TOF-MS, are indicated with double front slashes.

In general, fraction remaining refers to what is left of the initial amount, in per cent. In the case of `CC[C@H](C)[C@H](NC(=O)[C@H](Cc1ccccc1)NC(=O)[C@H](CCC(=O)O)NC(=O)[C@H]1CCC[C@@H]1NC(=O)[C@H](C)NC(=O)[C@H](C)NC(=O)[C@H](CCC(N)=O)NC(=O)[C@H]1CCC[C@@H]1NC(=O)[C@H](CCC(=O)O)NC(=O)[C@H](CC(C)C)NC(=O)[C@H](Cc1ccc(O)cc1)NC(=O)[C@H]1CCC[C@@H]1NC(=O)[C@H](CO)NC(=O)C(C)(C)NC(=O)[C@H](CC(=O)O)NC(=O)[C@H](CO)NC(=O)[C@@H](NC(=O)[C@H](Cc1ccccc1)NC(=O)[C@@H](NC(=O)CNC(=O)[C@H](CCC(=O)O)NC(=O)C(C)(C)NC(=O)[C@@H](N)Cc1c[nH]cn1)[C@@H](C)O)[C@@H](C)O)C(=O)N[C@H]1CCC[C@@H]1C(=O)N[C@@H](Cc1c[nH]c2ccccc12)C(=O)N[C@@H](CC(C)C)C(=O)N[C@H](C(=O)N[C@H]1CNC[C@@H]1C(=O)NCC(=O)N[C@@H](CCCNC(=N)N)C(=O)NCC(N)=O)C(C)C` [SEQ. ID. NO: 7], the “t1/2 with neprilysin relative to native GLP-1 peptide” value on neprilysin was “more than 100 times”. Further, the “cleavage by DPP-4 over seven days (in words)” value on DPP-4 is given as “no cleavage was detected”. The “Max Response (% GLP-1 max)” value on human GLP-1 receptor (HEK293 cells, cAMP production) was 88 % GLP-1 max. For the same compound, the “cAMP production, AVERAGES at M Concentrations −7” value at human GLP-1 receptor (peptide concentration −7 (log M)) is recorded as 88.32. Further, the “cAMP production, AVERAGES at M Concentrations −8” value at human GLP-1 receptor (peptide concentration −8 (log M)) was 63.0221. Moreover, the “cAMP production, AVERAGES at M Concentrations −9” value at human GLP-1 receptor (peptide concentration −9 (log M)) was 35. Further, the “cAMP production, AVERAGES at M Concentrations −10” value at human GLP-1 receptor (peptide concentration −10 (log M)) was 4.469. The “cAMP production, AVERAGES at M Concentrations −11” value at human GLP-1 receptor (peptide concentration −11 (log M)) was 3.504. Moreover, the “cAMP production, AVERAGES at M Concentrations −12” value on human GLP-1 receptor (peptide concentration −12 (log M)) was 2.813. Besides, the “cAMP production, AVERAGES at M Concentrations −13” value at human GLP-1 receptor (peptide concentration −13 (log M)) came out at 3.831. The amount remaining at 25 min, 40 μM with chymotrypsin [1] was more than 25%. Also, the half-life on chymotrypsin [2] was 12.5 min.
